Test results reported in the NIST ThermoML archive (doi:10.1016/j.fluid.2017.12.010).

Details: Liquid, Vibrating tube method

CCCCCCCCCC [decane]
Details	mass density [kg/m3]
283.55 K, 5000 kPa	742
283.56 K, 3000 kPa	740
283.56 K, 20000 kPa	752
283.56 K, 30000 kPa	758
283.56 K, 40000 kPa	763
283.56 K, 50000 kPa	769
283.56 K, 60000 kPa	774
283.56 K, 70000 kPa	779
283.56 K, 80000 kPa	783
283.56 K, 90000 kPa	788
283.57 K, 1000 kPa	739
283.57 K, 10000 kPa	745
283.58 K, 100 kPa	738
293.48 K, 100 kPa	731
293.48 K, 1000 kPa	731
293.49 K, 5000 kPa	734
293.49 K, 10000 kPa	738
293.49 K, 20000 kPa	745
293.5 K, 30000 kPa	751
293.5 K, 40000 kPa	757
293.5 K, 50000 kPa	763
293.5 K, 100000 kPa	787
293.51 K, 60000 kPa	768
293.51 K, 70000 kPa	773
293.51 K, 80000 kPa	778
293.51 K, 90000 kPa	783
303.42 K, 100 kPa	723
303.42 K, 1000 kPa	724
303.42 K, 10000 kPa	731
303.42 K, 30000 kPa	745
303.42 K, 40000 kPa	751
303.42 K, 70000 kPa	768
303.42 K, 80010 kPa	773
303.42 K, 90000 kPa	777
303.43 K, 5000 kPa	727
303.43 K, 20000 kPa	738
303.43 K, 50000 kPa	757
303.43 K, 60000 kPa	762
303.43 K, 100000 kPa	782
313.35 K, 100 kPa	716
313.35 K, 1000 kPa	717
313.35 K, 5000 kPa	721
313.35 K, 40000 kPa	746
313.36 K, 20000 kPa	732
313.36 K, 50000 kPa	752
313.36 K, 70000 kPa	763
313.36 K, 80000 kPa	768
313.36 K, 90000 kPa	773
313.36 K, 100000 kPa	777
313.37 K, 10000 kPa	725
313.37 K, 30000 kPa	739
313.37 K, 60000 kPa	757
323.24 K, 100 kPa	708
323.24 K, 1000 kPa	709
323.24 K, 100000 kPa	771
323.25 K, 5000 kPa	712
323.25 K, 10000 kPa	717
323.25 K, 20000 kPa	725
323.25 K, 30000 kPa	732
323.25 K, 40000 kPa	739
323.25 K, 50000 kPa	745
323.25 K, 60000 kPa	751
323.25 K, 70000 kPa	757
323.25 K, 80000 kPa	762
323.25 K, 90000 kPa	767
333.12 K, 5000 kPa	705
333.12 K, 10000 kPa	710
333.12 K, 20000 kPa	718
333.13 K, 100 kPa	700
333.13 K, 1000 kPa	701
333.13 K, 30000 kPa	726
333.13 K, 80000 kPa	757
333.13 K, 90000 kPa	762
333.13 K, 100000 kPa	767
333.14 K, 40000 kPa	733
333.14 K, 50000 kPa	740
333.14 K, 60000 kPa	746
333.14 K, 70000 kPa	751
343.01 K, 100 kPa	693
343.01 K, 1000 kPa	694
343.01 K, 10000 kPa	703
343.01 K, 20000 kPa	712
343.01 K, 30000 kPa	720
343.01 K, 40000 kPa	727
343.01 K, 50000 kPa	734
343.01 K, 60000 kPa	740
343.02 K, 5000 kPa	698
343.02 K, 70000 kPa	746
343.02 K, 80000 kPa	752
343.02 K, 90000 kPa	757
343.02 K, 100000 kPa	762
352.87 K, 100 kPa	686
352.87 K, 1000 kPa	687
352.87 K, 5000 kPa	691
352.88 K, 10000 kPa	696
352.88 K, 20000 kPa	706
352.88 K, 30000 kPa	714
352.88 K, 40000 kPa	722
352.88 K, 50000 kPa	729
352.88 K, 60000 kPa	735
352.89 K, 70000 kPa	741
352.89 K, 80000 kPa	747
352.89 K, 90000 kPa	753
352.89 K, 100000 kPa	758
362.69 K, 100 kPa	677
362.69 K, 1000 kPa	678
362.7 K, 5000 kPa	683
362.7 K, 10000 kPa	689
362.71 K, 20000 kPa	699
362.71 K, 30000 kPa	708
362.71 K, 40000 kPa	716
362.71 K, 50000 kPa	723
362.71 K, 60000 kPa	730
362.72 K, 70000 kPa	736
362.72 K, 80000 kPa	742
362.72 K, 90000 kPa	747
362.72 K, 100000 kPa	753
